Measured values: patent US20130071897A1, “METHOD FOR CONTROLLING UNDESIRABLE BYPRODUCTS FORMATION CAUSED BY CONTAMINATING ORGANISMS IN THE PRODUCTION OF ETHANOL FROM SYNGAS” (COSKATA, INC., priority 2011, published 2013)
Values joined by “and” are separate entries in the source; they are usually repeats but may differ in a detail not shown here. Equal values may be shown once.

Test system: C. autoethanogenum
Assay: Toxicity to C. autoethanogenum by batch fermentation using syngas substrate, optical density
Type: cell-based, Clostridium autoethanogenum
Settings: for O.D. Response of Various Inhibitors on C. autoethanogenum: Table 21, one value per compound; for O.D. Response to Various Inhibitors: duplicates A and B, amount not given
Description: In this example various crotonate-like compounds on are evaluated for toxicity to C. autoethanogenum by batch fermentation using syngas substrate. The batch fermentations are conducted by anoxically filling 100 mL serum bottles with 10 mL of media having the composition given in Tables 12 and 13. Duplicate runs are conducted for each concentration. The compounds are: • C-1 Ethyl 4,4,4-trifluoro-3-(trifluoromethyl)crotonate • C-4 4,4,4-Trifluorocrotonamide • C-9 Ethyl 4,4,4-Trifluoro-3-(amino)crotonate • C-18 3 trifluoromethyl-4-methoxybenzoate.
Each bottle is inoculated with 1.0 mL of seed culture inoculum from an active fermenter using syngas substrate and containing Clostridium autoethanogenum, which inoculum has an OD of about 4.92 (which upon a 10 times dilution provides a starting OD for the fermentation of about 0.49). The bottles are gased with syngas to about 100 kilopascals and maintained at a temperature of 37° C. The bottles are regassed with syngas every 8 to 12 hours. The syngas has the approximate composition set forth in Examples 6 to 10. Twenty four hours after inoculation of the bottles with the bacteria, the compounds are added to different bottles as a solution in 50 μL of N-methylpyrrolidone in the amounts indicated in Tables 20 and 21. The fermentation process is allowed to progress at 37° C. At selected intervals of time, bacterial growth is measured by reading the OD of the fermentation liquid using a Thermo Spectronic Genesys 20 spectrophotometer. Optical density is measured by anoxically removing an aliquot of fermentation liquid and adding it to a disposable cuvette. OD's ranging between 0.01 and 0.4 are measured using fermentation liquid directly, while OD's greater than 0.4 are measure after performing a 1/10 dilution with water.

[1] = 0 Hours, added 24 h after inoculation
[2] = 2.5 Hours, added 24 h after inoculation
[3] = 6.5 Hours, added 24 h after inoculation
[4] = 24.5 Hours, added 24 h after inoculation

Compound	O.D. Response of Various Inhibitors on C. autoethanogenum [1]	O.D. Response of Various Inhibitors on C. autoethanogenum [2]	O.D. Response of Various Inhibitors on C. autoethanogenum [3]	O.D. Response of Various Inhibitors on C. autoethanogenum [4]	O.D. Response of Various Inhibitors on C. autoethanogenum (30.5 Hours)	O.D. Response of Various Inhibitors on C. autoethanogenum (47.5 Hours)	O.D. Response of Various Inhibitors on C. autoethanogenum (56 Hours)	O.D. Response to Various Inhibitors [1]	O.D. Response to Various Inhibitors (2.5 Hours, added 24 h after inoculation, listed as C-9)	O.D. Response to Various Inhibitors (6.5 Hours, added 24 h after inoculation, listed as C-9)	O.D. Response to Various Inhibitors (24.5 Hours, added 24 h after inoculation, listed as C-9)	O.D. Response to Various Inhibitors (30.5 Hours, added 24 h after inoculation, listed as C-9)	O.D. Response to Various Inhibitors (47.5 Hours, added 24 h after inoculation, listed as C-9)	O.D. Response to Various Inhibitors (2.5 Hours, added 24 h after inoculation, listed as C-1)	O.D. Response to Various Inhibitors (6.5 Hours, added 24 h after inoculation, listed as C-1)	O.D. Response to Various Inhibitors (24.5 Hours, added 24 h after inoculation, listed as C-1)	O.D. Response to Various Inhibitors (30.5 Hours, added 24 h after inoculation, listed as C-1)	O.D. Response to Various Inhibitors (47.5 Hours, added 24 h after inoculation, listed as C-1)
CCOC(=O)/C=C(\N)C(F)(F)F [B, ethyl-3-amino-4,4,4-trifluorocrotonate]	0.49	0.41	0.44	1.06	1.38	1.90	1.98	0.49	0.40 and 0.42	0.42 and 0.46	1.14 and 0.97	1.28 and 1.47	1.67 and 2.12	–	–	–	–	–
CCOC(=O)C=C(C(F)(F)F)C(F)(F)F [Compound A, ethyl 4,4,4-trifluoro-3-(trifluoromethyl)crotonate]	0.49	0.44	0.44	1.12	1.18	0.66	0.58	0.49	–	–	–	–	–	0.42 and 0.46	0.42 and 0.46	1.17 and 1.08	1.15 and 1.22	0.66 and 0.67
